Test results as given in US20100092499A1, “Alpha Thymosin Peptides as Cancer Vaccine Adjuvants” (SCICLONE PHARMACEUTICALS, INC., priority 2004, published 2010).

Assays:
advanced breast cancer = experiment: Clinical study of dendritic cell vaccine with or without thymalfasin in advanced breast cancer patients; assay type: in vivo, human; settings: for Patient Survival: 12 months; for Patient Survival / Patients with Tumor Reduction >50%: Group 3 non responders (LPI <20 U), 6 dendritic cell immunizations plus thymalfasin 1.6 mg twice a week, n=5; for Patients with Tumor Reduction >50%: Month 6
Procedure: Finally, the patients were immunized with the activated B cells hybrid itself, or a B cell hybrid cocultured with the patients' Dendritic Cells. This immunization was applied into a healthy lymph node once every three weeks. At the same time, the patients received 1.6 mg thymalfasin subcutaneously in the evenings (within between 7:00 pm and 9:00 pm) every 3 days during the time of immunization and for the following six months after the vaccination protocol was completed. This vaccination plan may, for example, involve from 4 to 10 doses, although these numbers are not exclusive.
Eighteen patients with advanced breast cancer resistant to chemo, radio and hormonotherapy were treated.
All the patients were female with Breast Cancer class 4 (with metastases).
The age rank was between 39 to 71 years.
The patients were treated with dendritic cell vaccine (according protocol: Annals of Oncology 2004-Vol 15. Supp. 3 Abs: iii40-Dendritic Cell Vaccine for Metastases Breast Cancer).
(§1) After the second vaccination course, the cellular immunization were measured, if this is >=20 ULPI (Linfocitic Proliferative Index) continued with the vaccination.
If the response was <20 ULPI, the patients were divided in 2 groups (randomized) of 5 and 7 patients group. The 5 patients group received Dendritic Cells
Vaccine plus thymalfasin (1.6 mg/tw during 6 months).
The clinical response and the survival data originated on total 18 metastatic breast patients treated were collected and, in order to perform a case serial statistic analysis we divided the total population in three different groups.
In Group 3 (n=5), patients received 6 dendritic cell immunizations with an LPI <20 U (non immune response) after the second vaccine and they received thymalfasin (1.6 mg/twice a week).

patient tumor cells = experiment: Lymphocyte Proliferation Assay (LPI); assay type: cell-based, human; settings: five patients with LPI lower than 20 U after second DC immunization; thymalfasin 1.6 mg twice a week for 6 months plus 4 additional DC vaccine courses
Procedure: as §1
The patient immune response was measured using a well known in-vitro test named Lymphocyte Proliferation Assay. Briefly, mononuclear cells from the patient were purified and mixed with a suspension of the patient tumor cells at ratio 10:1 (3000 Lympho-monocytes vs 300 tumor cells). The mix cell suspension was seeded in a multi well plate and incubated at 37° C. After 96 hr the cells were harvested and counted by an automatic haemocytometer.

human CD34 stem cells = settings: added to human CD34 stem cells in culture; cited from earlier work
[1] = system: IFNγ, IL-2, IL-3, IL-2 receptor; settings: following activation by mitogens or antigens; cited from earlier work
thymocytes = settings: in vitro, dose-dependent; most pronounced on CD4CD8 double positive immature T cells; cited from earlier work
[2] = in vivo; cited from earlier work

Substance: thymosin alpha 1 [thymalfasin]
- Patient Survival (advanced breast cancer): 80%
- Patient Survival (advanced breast cancer; listed as THYMALFASIN): 80%
- Patients with Tumor Reduction >50% (advanced breast cancer): 80%
- Patients with Tumor Reduction >50% (advanced breast cancer; listed as THYMALFASIN): 80%
- Patient survival compared with immune responders and non immune responders who did not receive thymalfasin (advanced breast cancer; advanced breast cancer patients, dendritic cell immunization): higher
- effective tumor response (advanced breast cancer; five patients with LPI lower than 20 U, thymalfasin 1.6 mg twice a week for 6 months plus 4 additional DC vaccine courses): majority of the treated patients showed an effective tumor response
- Lymphocyte Proliferation Index (LPI) (patient tumor cells): able to improve the LPI
- thymopoiesis (number of total CD3 T cells, synthesis of IL-7) (human CD34 stem cells): increased thymopoiesis
- production of IFNγ, IL-2, IL-3 and expression of the IL-2 receptor [1]: can increase production
- dexamethasone-induced apoptosis in thymocytes (thymocytes): antagonizes
- safety / side effects [2]: safe drug and its potential side effects are significantly low
